# Experimental data taken from publication PMC4979471 (Cell Death Discovery, 2015).
# Read-outs that look alike come from different tables or passages of the source.
# Tests used:
# Assay in all cases: Kinase selectivity, P33-radiolabeled assay
# Format in all cases: biochemical
# Details in all cases: 10 μM ATP
# CAMKK1 = biological target: T1, CAMKK1 (Homo sapiens, UniProt Q8N5S9)
# T1 construct: purchased Reaction Biology Corp
# Method in brief: (§1)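 Each enzyme was exposed to 10 μM compound, with duplicate measurements, in reactions containing 10 μM ATP. Numbers are remaining activity as a percent of the vehicle (DMSO) signal.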
# CDK4/cyclin D1 = biological target: T2, CDK4/cyclin D1 (Homo sapiens, UniProt P11802)
# T2 construct: purchased Reaction Biology Corp
# Method in brief: as §1
# EPHB3 = biological target: T3, EPHB3 (Homo sapiens, UniProt P54753)
# T3 construct: purchased Reaction Biology Corp
# T3 sequence (P54753 34-998): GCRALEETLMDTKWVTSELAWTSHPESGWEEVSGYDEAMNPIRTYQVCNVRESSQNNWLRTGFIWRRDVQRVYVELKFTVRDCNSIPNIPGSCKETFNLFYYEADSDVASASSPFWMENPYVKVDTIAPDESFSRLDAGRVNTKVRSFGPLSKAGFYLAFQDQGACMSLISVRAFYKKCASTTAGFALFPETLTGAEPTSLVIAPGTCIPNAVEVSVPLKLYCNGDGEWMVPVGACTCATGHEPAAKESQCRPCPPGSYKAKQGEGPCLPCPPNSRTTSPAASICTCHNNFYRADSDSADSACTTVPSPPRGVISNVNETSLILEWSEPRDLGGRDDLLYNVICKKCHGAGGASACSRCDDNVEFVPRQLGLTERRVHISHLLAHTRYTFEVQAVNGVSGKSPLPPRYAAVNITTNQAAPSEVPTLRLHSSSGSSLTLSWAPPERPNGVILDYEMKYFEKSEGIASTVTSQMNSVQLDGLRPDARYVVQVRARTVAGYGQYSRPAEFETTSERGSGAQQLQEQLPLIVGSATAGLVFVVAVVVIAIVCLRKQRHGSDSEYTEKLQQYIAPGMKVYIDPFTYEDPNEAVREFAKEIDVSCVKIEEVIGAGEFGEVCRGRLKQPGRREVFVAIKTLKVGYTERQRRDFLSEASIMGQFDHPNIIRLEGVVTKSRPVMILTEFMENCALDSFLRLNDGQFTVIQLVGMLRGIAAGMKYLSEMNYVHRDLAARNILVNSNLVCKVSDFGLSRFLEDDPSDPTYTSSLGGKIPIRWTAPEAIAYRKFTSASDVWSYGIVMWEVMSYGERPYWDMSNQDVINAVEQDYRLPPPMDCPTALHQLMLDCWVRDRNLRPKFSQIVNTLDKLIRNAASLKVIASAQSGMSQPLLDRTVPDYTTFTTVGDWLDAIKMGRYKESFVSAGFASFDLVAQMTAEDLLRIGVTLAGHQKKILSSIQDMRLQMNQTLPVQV
# Method in brief: as §1
# PKCa = biological target: T4, PKCa (Homo sapiens, UniProt P17252)
# T4 construct: purchased Reaction Biology Corp
# Method in brief: as §1
# PLK1 = biological target: T5, PLK1 (Homo sapiens, UniProt P53350)
# T5 construct: purchased Reaction Biology Corp
# T5 sequence (P53350 whole entry): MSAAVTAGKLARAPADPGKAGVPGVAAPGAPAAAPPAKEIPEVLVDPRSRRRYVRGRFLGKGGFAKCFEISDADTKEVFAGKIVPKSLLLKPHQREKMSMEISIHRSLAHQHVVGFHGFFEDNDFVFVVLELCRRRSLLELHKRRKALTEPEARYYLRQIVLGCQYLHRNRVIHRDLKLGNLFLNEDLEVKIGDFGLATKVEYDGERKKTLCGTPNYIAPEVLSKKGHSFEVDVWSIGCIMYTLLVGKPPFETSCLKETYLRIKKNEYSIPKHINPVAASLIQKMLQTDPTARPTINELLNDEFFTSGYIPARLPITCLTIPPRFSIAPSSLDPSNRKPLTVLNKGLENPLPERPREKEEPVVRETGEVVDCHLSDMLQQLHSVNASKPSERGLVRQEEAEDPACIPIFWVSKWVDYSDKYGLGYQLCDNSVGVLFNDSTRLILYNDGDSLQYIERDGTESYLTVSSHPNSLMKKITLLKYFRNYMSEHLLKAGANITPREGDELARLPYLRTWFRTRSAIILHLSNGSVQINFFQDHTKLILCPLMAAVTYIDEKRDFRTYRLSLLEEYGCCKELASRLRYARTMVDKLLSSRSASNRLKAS
# Method in brief: as §1
# ROCK1 = biological target: T6, ROCK1 (Homo sapiens, UniProt Q13464)
# T6 construct: purchased Reaction Biology Corp
# T6 sequence (Q13464 whole entry): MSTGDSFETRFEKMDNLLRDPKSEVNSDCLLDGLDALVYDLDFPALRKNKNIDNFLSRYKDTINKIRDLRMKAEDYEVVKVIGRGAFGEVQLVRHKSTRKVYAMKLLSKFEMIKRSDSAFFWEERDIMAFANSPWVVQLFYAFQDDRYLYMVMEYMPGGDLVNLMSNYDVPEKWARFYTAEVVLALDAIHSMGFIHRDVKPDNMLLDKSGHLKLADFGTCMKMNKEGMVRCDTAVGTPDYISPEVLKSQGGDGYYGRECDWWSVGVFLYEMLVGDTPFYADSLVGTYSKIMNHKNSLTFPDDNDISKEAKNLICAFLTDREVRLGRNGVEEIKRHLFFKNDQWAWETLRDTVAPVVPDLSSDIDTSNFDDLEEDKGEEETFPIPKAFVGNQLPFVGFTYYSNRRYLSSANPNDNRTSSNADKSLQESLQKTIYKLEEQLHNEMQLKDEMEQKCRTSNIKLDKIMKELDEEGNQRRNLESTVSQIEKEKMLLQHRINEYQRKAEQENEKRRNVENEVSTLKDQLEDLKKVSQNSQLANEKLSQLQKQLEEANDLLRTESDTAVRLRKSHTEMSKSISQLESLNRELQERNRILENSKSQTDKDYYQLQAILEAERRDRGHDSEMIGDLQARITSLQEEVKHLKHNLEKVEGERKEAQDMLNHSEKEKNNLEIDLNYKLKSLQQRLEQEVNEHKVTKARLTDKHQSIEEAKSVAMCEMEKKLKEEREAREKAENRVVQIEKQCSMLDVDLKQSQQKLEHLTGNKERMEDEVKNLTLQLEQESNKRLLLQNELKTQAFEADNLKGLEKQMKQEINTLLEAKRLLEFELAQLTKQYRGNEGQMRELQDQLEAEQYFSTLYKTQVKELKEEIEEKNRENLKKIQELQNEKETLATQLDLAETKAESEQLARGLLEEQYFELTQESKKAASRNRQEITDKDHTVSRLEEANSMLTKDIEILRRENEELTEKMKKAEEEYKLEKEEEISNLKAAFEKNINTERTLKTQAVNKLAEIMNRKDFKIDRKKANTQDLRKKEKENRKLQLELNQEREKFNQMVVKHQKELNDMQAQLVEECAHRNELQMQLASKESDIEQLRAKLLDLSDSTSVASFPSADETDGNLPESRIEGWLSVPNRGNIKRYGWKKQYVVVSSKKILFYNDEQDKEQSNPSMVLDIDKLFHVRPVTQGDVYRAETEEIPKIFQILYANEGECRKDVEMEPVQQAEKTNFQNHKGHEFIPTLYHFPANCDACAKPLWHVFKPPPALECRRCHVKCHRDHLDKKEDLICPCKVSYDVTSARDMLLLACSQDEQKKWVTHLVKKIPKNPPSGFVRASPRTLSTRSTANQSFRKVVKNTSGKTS
# Method in brief: as §1
# RON/MST1R = biological target: T7, RON/MST1R (Homo sapiens, UniProt Q04912)
# T7 construct: purchased Reaction Biology Corp
# T7 sequence (Q04912 25-1400): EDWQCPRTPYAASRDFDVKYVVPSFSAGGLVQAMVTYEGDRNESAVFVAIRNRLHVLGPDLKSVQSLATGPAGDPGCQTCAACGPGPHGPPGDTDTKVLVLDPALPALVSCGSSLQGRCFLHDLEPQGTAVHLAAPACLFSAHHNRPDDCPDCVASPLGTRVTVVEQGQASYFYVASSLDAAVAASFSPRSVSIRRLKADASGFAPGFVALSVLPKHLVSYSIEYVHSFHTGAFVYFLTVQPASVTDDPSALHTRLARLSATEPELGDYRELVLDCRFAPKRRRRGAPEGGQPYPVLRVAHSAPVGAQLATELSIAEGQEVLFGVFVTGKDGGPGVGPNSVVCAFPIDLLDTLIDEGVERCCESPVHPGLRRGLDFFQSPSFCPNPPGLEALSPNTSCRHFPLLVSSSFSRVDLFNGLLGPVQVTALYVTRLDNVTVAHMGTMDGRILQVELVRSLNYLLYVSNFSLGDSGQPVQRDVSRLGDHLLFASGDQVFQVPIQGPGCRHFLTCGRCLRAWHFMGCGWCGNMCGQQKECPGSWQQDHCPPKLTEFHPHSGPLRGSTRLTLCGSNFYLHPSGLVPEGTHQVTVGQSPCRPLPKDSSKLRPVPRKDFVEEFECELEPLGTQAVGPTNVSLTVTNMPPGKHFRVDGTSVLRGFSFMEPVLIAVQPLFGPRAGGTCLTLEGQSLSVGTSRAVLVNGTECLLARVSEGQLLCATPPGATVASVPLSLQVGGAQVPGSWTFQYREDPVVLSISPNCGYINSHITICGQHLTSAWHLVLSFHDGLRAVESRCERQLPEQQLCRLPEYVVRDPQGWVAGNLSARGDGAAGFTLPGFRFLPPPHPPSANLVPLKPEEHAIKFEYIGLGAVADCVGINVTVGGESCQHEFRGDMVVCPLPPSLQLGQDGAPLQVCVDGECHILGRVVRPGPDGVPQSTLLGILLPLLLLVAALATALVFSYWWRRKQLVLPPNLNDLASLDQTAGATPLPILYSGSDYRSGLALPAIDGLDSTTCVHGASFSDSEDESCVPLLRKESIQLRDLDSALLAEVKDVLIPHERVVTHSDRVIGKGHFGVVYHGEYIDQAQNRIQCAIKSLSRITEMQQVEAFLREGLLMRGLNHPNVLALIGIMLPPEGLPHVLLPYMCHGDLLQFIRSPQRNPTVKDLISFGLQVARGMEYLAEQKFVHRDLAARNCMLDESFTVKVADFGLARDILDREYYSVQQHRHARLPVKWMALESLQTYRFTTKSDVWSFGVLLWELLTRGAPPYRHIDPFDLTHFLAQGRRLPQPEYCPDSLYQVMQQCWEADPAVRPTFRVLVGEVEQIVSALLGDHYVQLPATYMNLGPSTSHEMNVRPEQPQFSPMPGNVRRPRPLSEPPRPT
# Method in brief: as §1
# STK16 = biological target: T8, STK16 (Homo sapiens, UniProt O75716)
# T8 construct: purchased Reaction Biology Corp
# T8 sequence (O75716 whole entry): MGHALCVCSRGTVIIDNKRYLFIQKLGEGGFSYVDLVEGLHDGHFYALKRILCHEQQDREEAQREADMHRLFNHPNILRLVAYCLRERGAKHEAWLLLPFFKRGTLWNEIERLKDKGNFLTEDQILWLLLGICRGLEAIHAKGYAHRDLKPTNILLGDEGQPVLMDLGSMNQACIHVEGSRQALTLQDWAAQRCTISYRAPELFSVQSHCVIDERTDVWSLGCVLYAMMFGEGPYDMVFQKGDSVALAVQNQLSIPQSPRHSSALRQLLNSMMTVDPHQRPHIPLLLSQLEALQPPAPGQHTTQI
# Method in brief: as §1
# ULK1 = biological target: T9, ULK1 (Homo sapiens, UniProt O75385)
# T9 construct: purchased Reaction Biology Corp
# T9 sequence (O75385 1-1050): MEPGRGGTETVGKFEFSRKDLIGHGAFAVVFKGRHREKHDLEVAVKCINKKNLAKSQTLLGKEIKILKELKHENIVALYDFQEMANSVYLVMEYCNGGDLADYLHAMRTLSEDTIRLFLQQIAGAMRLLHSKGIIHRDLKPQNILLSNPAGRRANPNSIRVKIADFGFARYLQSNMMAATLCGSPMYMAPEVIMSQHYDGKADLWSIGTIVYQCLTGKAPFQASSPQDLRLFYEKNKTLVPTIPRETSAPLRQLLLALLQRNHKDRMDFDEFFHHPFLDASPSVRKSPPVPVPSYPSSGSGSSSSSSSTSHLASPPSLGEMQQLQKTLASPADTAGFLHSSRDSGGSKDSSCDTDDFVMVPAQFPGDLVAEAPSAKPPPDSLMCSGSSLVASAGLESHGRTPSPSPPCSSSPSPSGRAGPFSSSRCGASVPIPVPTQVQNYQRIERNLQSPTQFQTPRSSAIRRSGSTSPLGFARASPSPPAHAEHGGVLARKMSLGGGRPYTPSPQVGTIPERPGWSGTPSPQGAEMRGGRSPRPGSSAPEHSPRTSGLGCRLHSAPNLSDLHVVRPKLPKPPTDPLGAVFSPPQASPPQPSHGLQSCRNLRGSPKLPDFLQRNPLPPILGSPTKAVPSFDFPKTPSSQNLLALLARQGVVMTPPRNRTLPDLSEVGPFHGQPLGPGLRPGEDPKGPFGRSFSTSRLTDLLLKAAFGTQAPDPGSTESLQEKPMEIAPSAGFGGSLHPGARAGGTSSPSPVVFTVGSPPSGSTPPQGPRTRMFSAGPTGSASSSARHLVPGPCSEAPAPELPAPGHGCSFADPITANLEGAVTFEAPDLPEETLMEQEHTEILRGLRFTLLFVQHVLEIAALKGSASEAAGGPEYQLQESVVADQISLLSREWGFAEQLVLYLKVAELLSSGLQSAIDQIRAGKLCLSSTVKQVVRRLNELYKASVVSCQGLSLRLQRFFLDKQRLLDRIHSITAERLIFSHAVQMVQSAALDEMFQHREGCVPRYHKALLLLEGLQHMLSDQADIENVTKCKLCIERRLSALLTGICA
# Method in brief: as §1
# [1] = read-out: % Enzyme Activity (relative to DMSO controls) AVG
# [2] = read-out: % Enzyme Activity (relative to DMSO controls) Data 1
# [3] = read-out: % Enzyme Activity (relative to DMSO controls) Data 2
# T1 sequence (Q8N5S9 whole entry): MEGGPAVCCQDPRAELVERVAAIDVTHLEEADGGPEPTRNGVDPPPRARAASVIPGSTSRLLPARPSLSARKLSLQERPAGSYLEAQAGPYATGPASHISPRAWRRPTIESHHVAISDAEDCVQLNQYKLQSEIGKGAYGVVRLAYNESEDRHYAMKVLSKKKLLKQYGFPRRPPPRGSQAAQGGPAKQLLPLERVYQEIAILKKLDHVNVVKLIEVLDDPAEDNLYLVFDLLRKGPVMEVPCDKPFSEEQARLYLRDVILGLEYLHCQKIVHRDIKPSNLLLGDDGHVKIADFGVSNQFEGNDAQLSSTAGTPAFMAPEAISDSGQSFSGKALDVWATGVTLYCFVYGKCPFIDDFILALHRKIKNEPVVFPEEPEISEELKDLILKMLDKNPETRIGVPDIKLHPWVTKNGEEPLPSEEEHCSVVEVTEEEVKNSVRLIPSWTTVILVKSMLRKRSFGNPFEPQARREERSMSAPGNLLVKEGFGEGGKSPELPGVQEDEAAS
structure (smiles),measurement,setting,value
CC(C)(C)C(=O)N1N=CC[C@H]1c1ccccc1 [GSK′963],remaining activity at 10 µM,CAMKK1; [1],103%
same,remaining activity at 10 µM,CAMKK1; [2],105%
same,remaining activity at 10 µM,CAMKK1; [3],101%
same,remaining activity at 10 µM,CDK4/cyclin D1; [1],96.7%
same,remaining activity at 10 µM,CDK4/cyclin D1; [2],94.5%
same,remaining activity at 10 µM,CDK4/cyclin D1; [3],98.9%
same,remaining activity at 10 µM,EPHB3; [1],105%
same,remaining activity at 10 µM,EPHB3; [2],103%
same,remaining activity at 10 µM,EPHB3; [3],107%
same,remaining activity at 10 µM,PKCa; [1],96.9%
same,remaining activity at 10 µM,PKCa; [2],95.7%
same,remaining activity at 10 µM,PKCa; [3],98%
same,remaining activity at 10 µM,PLK1; [1],103%
same,remaining activity at 10 µM,PLK1; [2],105%
same,remaining activity at 10 µM,PLK1; [3],101%
same,remaining activity at 10 µM,ROCK1; [1],105%
same,remaining activity at 10 µM,ROCK1; [2],103%
same,remaining activity at 10 µM,ROCK1; [3],106%
same,remaining activity at 10 µM,RON/MST1R; [1],104%
same,remaining activity at 10 µM,RON/MST1R; [2],106%
same,remaining activity at 10 µM,RON/MST1R; [3],102%
same,remaining activity at 10 µM,STK16; [1],101%
same,remaining activity at 10 µM,STK16; [2],101%
same,remaining activity at 10 µM,STK16; [3],101%
same,remaining activity at 10 µM,ULK1; [1],106%
same,remaining activity at 10 µM,ULK1; [2],106%
same,remaining activity at 10 µM,ULK1; [3],106%
